According to patent US20260069584A1, “METHODS OF TREATING CHRONIC MYELOID LEUKEMIA USING THE TYROSINE KINASE INHIBITOR VODOBATINIB” (Sun Pharma Advanced Research Company Ltd., priority 2022, published 2026):
Entries after “also recorded” stand apart in the source; their conditions may differ.

Key:
[1] = Pharmacokinetics in CML patients by dose cohort; conditions: for Cmin: cycle 2, CML patients, oral; for AUC(0-t) / Cmax: human, plasma, po
Description: A±5 minutes window permitted till 4 hours PK sample collection. A±10 minutes window permitted for subsequent PK sample collection. Days 3, 8, 15, and 22 of Cycle 1:30 (±10) minutes Predose only. […] A #5 minutes window permitted till 4 hours PK sample collection. A #10 minutes window permitted for subsequent PK sample collection. Days 8, 15, and 22 of Cycle 2:30 (±10) minutes Predose only. Cycle 3 onwards: Predose samples on Day 1.
Pharmacokinetic analysis was performed using non-compartmental analysis. The actual elapsed time from dose was used in the final PK parameter calculations. Plasma concentrations and PK parameters for the compound of Formula I were listed and summarized by dose cohort using descriptive statistics (n, mean, standard deviation, minimum, median, and maximum). Geometric mean and geometric coefficient of variation were calculated for PK parameters. Additionally, mean concentration profiles by dose cohort and cycle were illustrated. Dose proportionality of Cmax and AUC(0-24) was assessed graphically for Cycle 1 and Cycle 2. Dose proportionality was statistically evaluated using the power model approach, whenever the number of patients was at least 3 for a given cohort. Time to steady-state (Ctrough) was evaluated graphically. Differences among dose levels in CL/F and V/F, and dose-normalized Cmax and AUC(0-24) were explored using an analysis of variance.
The PK parameters for the study were summarized by treatment using descriptive (N, n, mean, standard deviation [SD], coefficient of variation [CV] % minimum, median, maximum, geometric mean and CV %) statistics, except for Tmax. For Tmax, the number of subjects, minimum, median, and maximum are reported.

[2] = Part B: treatment-emergent cardiovascular adverse events (CVAEs); format: in vivo, human
Description: For the purpose of the present invention, the adverse events were graded as per the National Cancer Institute's, Common Terminology Criteria for Adverse Events (NCI-CTCAE) Version 4.03 and Version 5.0 (https://evs.nci.nih.gov/ftp1/CTCAE/About.html). It is a descriptive terminology which can be utilized for Adverse Event (AE) reporting.
AEs were graded as per NCI-CTCAE Version 5.0. In the present study, along with others most common AEs for which patients were monitored were thrombocytopenia, neutropenia and anemia, any AE reported by the patient after the completion of AE collection period and considered related to the study drug was reported.
Two CVAEs considered related to the compound of Formula I: one Grade 2 hypertension and one fatal intracranial hemorrhage (ICH) with concomitant disease progression to BP CML.
Table 22 below lists the medical history of patients and CVAEs that were reported in the patient during treatment.

[3] = Prior Ponatinib (N = 22), Any grade
[4] = Prior Ponatinib (N = 22), Grade 3/4
[5] = ≤2 prior TKIs (N = 18), Any grade
[6] = ≤2 prior TKIs (N = 18), Grade 3/4
[7] = ≥3 prior TKIs (N = 35), Any grade
[8] = ≥3 prior TKIs (N = 35), Grade 3/4

Cc1ccc(C(=O)NNC(=O)c2c(C)cccc2Cl)cc1C#Cc1cnc2ccccc2c1 [compound of Formula I, N′-(2-chloro-6-methylbenzoyl)-4-methyl-3-[2-(3-quinolyl)ethynyl]-benzohydrazide]
Cmin ([1]; dose cohort 12): 61.8
Cmin ([1]; dose cohort 24): 114
Cmin ([1]; dose cohort 48): 261
Cmin ([1]; dose cohort 66): 102.7
Cmin ([1]; dose cohort 90): 363
Cmin ([1]; dose cohort 126): 831
Cmin ([1]; dose cohort 174): 254
Cmin ([1]; dose cohort 204): 427
increase of mean exposures (AUC) with dose ([1]; doses above 174 mg): sub-proportional increase or plateauing of exposures
AUC(0-t) ([1]; 12 mg): 3330 ng·h/mL
Cmax ([1]; 12 mg): 685 ng/mL
AUC(0-t) ([1]; 24 mg): 5070 ng·h/mL
Cmax ([1]; 24 mg): 589 ng/mL
AUC(0-t) ([1]; 48 mg): 13700 ng·h/mL
Cmax ([1]; 48 mg): 1090 ng/mL
AUC(0-t) ([1]; 66 mg): 7780 ng·h/mL
Cmax ([1]; 66 mg): 830 ng/mL
AUC(0-t) ([1]; 90 mg): 22800 ng·h/mL
Cmax ([1]; 90 mg): 2860 ng/mL
AUC(0-t) ([1]; 126 mg): 50300 ng·h/mL
Cmax ([1]; 126 mg): 4100 ng/mL
AUC(0-t) ([1]; 174 mg): 35700 ng·h/mL
Cmax ([1]; 174 mg): 4210 ng/mL
steady state reached (trough concentrations) ([1]; majority of the subjects): ≤ 3 days
accumulation at steady state ([1]; once-daily dosing): no low or minimal accumulation
patients with CVAEs ([2]; 1 patient, less than or equal to 2 TKIs): 5.5%
patients with CVAEs ([2]; 10 patients, prior ponatinib): 45.4%
CVAEs unrelated to the compound ([2]; 12 patients with CV history): 10
patients with CVAEs ([2]; 13 patients, more than or equal to 3 TKIs): 37.1%
patients with CVAEs, any grade ([2]; 14 patients out of 53): 26.4%
Treatment-emergent cardiovascular AE: Adverse Events Cluster - Cardiac and vascular events (%) ([2]; Overall (N = 53), Any grade): (26.4%)
Treatment-emergent cardiovascular AE: Angina Pectoris (%) ([2]; Overall (N = 53), Any grade): (3.7%)
Treatment-emergent cardiovascular AE: Arteriosclerosis (%) ([2]; Overall (N = 53), Any grade): (1.8%)
Treatment-emergent cardiovascular AE: Cerebral haemorrhage (%) ([2]; Overall (N = 53), Any grade): (1.8%)
Treatment-emergent cardiovascular AE: Congestive heart failure (%) ([2]; Overall (N = 53), Any grade): (1.8%)
Treatment-emergent cardiovascular AE: Hot flush (%) ([2]; Overall (N = 53), Any grade): (1.8%)
Treatment-emergent cardiovascular AE: Hypertension (%) ([2]; Overall (N = 53), Any grade): (7.5%)
Treatment-emergent cardiovascular AE: Hypotension (%) ([2]; Overall (N = 53), Any grade): (1.8%)
Treatment-emergent cardiovascular AE: Intermittent claudication (%) ([2]; Overall (N = 53), Any grade): (1.8%)
Treatment-emergent cardiovascular AE: Intracranial haemorrhage (%) ([2]; Overall (N = 53), Any grade): (1.8%)
Treatment-emergent cardiovascular AE: Mouth haemorrhage (%) ([2]; Overall (N = 53), Any grade): (1.8%)
Treatment-emergent cardiovascular AE: Palpitations (%) ([2]; Overall (N = 53), Any grade): (1.8%)
Treatment-emergent cardiovascular AE: Syncope (%) ([2]; Overall (N = 53), Any grade): (1.8%)
Treatment-emergent cardiovascular AE: Transient ischaemic attack (%) ([2]; Overall (N = 53), Any grade): (1.8%)
Treatment-emergent cardiovascular AE: Troponin I increased (%) ([2]; Overall (N = 53), Any grade): (1.8%)
Treatment-emergent cardiovascular AEs: Deaths (%) ([2]; Overall (N = 53), Any grade): (1.8%)
Treatment-emergent cardiovascular AEs: Dose interruption and restart (%) ([2]; Overall (N = 53), Any grade): (3.7%)
Treatment-emergent cardiovascular AEs: Leading to drug withdrawal (%) ([2]; Overall (N = 53), Any grade): (1.8%)
Treatment-emergent cardiovascular AEs: Related to study drug (%) ([2]; Overall (N = 53), Any grade): (3.7%)
Treatment-emergent cardiovascular AEs: Serious Adverse Events (%) ([2]; Overall (N = 53), Any grade): (7.5%)
Treatment-emergent cardiovascular AE: Adverse Events Cluster - Cardiac and vascular events (%) ([2]; Overall (N = 53), Grade 3/4): (5.6%)
Treatment-emergent cardiovascular AE: Congestive heart failure (%) ([2]; Overall (N = 53), Grade 3/4): (1.8%)
Treatment-emergent cardiovascular AE: Hypertension (%) ([2]; Overall (N = 53), Grade 3/4): (1.8%)
Treatment-emergent cardiovascular AE: Syncope (%) ([2]; Overall (N = 53), Grade 3/4): (1.8%)
Treatment-emergent cardiovascular AEs: Dose interruption and restart (%) ([2]; Overall (N = 53), Grade 3/4): (1.8%)
Treatment-emergent cardiovascular AEs: Serious Adverse Events (%) ([2]; Overall (N = 53), Grade 3/4): (1.8%)
CVAEs during treatment ([2]; Patient 25000603, history: Hypertension, Myocardial ischaemia, prior TKI therapy 3, ponatinib received No): Hypertension
CVAEs during treatment ([2]; Patient 35600503, history: Intracranial hemorrhage, prior TKI therapy 3, ponatinib received No): Oral hemorrhage
CVAEs during treatment ([2]; Patient 35600706, history: Acute myocardial infarction, myocardial ischemia, prior TKI therapy 3, ponatinib received No): Hypertension
CVAEs during treatment ([2]; Patient 41000101, history: Hypertension, prior TKI therapy 3, ponatinib received No): Angina pectoris,; also recorded: Palpitations,; also recorded: Arteriosclerosis
CVAEs during treatment ([2]; Patient 84000202, history: Hypertension, prior TKI therapy 4, ponatinib received Yes): Hypertension,; also recorded: Hypotension
CVAEs during treatment ([2]; Patient 84000203, history: Hypertension, prior TKI therapy 6, ponatinib received Yes): Hot flush
CVAEs during treatment ([2]; Patient 84000206, history: Bradycardia, Hypertension, prior TKI therapy 5, ponatinib received Yes): Angina pectoris
Treatment-emergent cardiovascular AE: Adverse Events Cluster - Cardiac and vascular events (%) [2, 3]: (45.4%)
Treatment-emergent cardiovascular AE: Angina Pectoris (%) [2, 3]: (4.5%)
Treatment-emergent cardiovascular AE: Cerebral haemorrhage (%) [2, 3]: (4.5%)
Treatment-emergent cardiovascular AE: Congestive heart failure (%) [2, 3]: (4.5%)
Treatment-emergent cardiovascular AE: Hot flush (%) [2, 3]: (4.5%)
Treatment-emergent cardiovascular AE: Hypertension (%) [2, 3]: (9.1%)
Treatment-emergent cardiovascular AE: Hypotension (%) [2, 3]: (4.5%)
Treatment-emergent cardiovascular AE: Intermittent claudication (%) [2, 3]: (4.5%)
Treatment-emergent cardiovascular AE: Syncope (%) [2, 3]: (4.5%)
Treatment-emergent cardiovascular AE: Transient ischaemic attack (%) [2, 3]: (4.5%)
Treatment-emergent cardiovascular AE: Troponin I increased (%) [2, 3]: (4.5%)
Treatment-emergent cardiovascular AEs: Serious Adverse Events (%) [2, 3]: (13.6%)
Treatment-emergent cardiovascular AE: Adverse Events Cluster - Cardiac and vascular events (%) [2, 4]: (13.6%)
Treatment-emergent cardiovascular AE: Congestive heart failure (%) [2, 4]: (4.5%)
Treatment-emergent cardiovascular AE: Hypertension (%) [2, 4]: (4.5%)
Treatment-emergent cardiovascular AE: Syncope (%) [2, 4]: (4.5%)
Treatment-emergent cardiovascular AEs: Serious Adverse Events (%) [2, 4]: (4.5%)
CVAEs related to the compound ([2]; grade 2 hypertension and fatal intracranial hemorrhage): 2
major CVAEs ([2]; highest dose of 204 mg, as long as 24 months): did not result in major CVAEs
permanent discontinuation due to CVAEs ([2]; human, in vivo): 1
dose modifications due to CVAEs ([2]; in vivo): No dose modifications
patients reporting CVAEs on study ([2]; of thirty patients with medical history of CVAEs): 12 patients
grade 3 or 4 CVAEs ([2]; out of 53): 5.6%
withdrawal criteria based on QTcF prolongation or safety laboratory tests ([2]; patients): No subject reached the subject withdrawal criteria
Treatment-emergent cardiovascular AE: Adverse Events Cluster - Cardiac and vascular events (%) [2, 5]: (5.5%)
Treatment-emergent cardiovascular AE: Congestive heart failure (%) [2, 5]: (5.5%)
Treatment-emergent cardiovascular AE: Adverse Events Cluster - Cardiac and vascular events (%) [2, 6]: (5.5%)
Treatment-emergent cardiovascular AE: Congestive heart failure (%) [2, 6]: (5.5%)
Treatment-emergent cardiovascular AE: Adverse Events Cluster - Cardiac and vascular events (%) [2, 7]: (37.1%)
Treatment-emergent cardiovascular AE: Angina Pectoris (%) [2, 7]: (5.7%)
Treatment-emergent cardiovascular AE: Arteriosclerosis (%) [2, 7]: (2.8%)
Treatment-emergent cardiovascular AE: Cerebral haemorrhage (%) [2, 7]: (2.8%)
Treatment-emergent cardiovascular AE: Hot flush (%) [2, 7]: (2.8%)
Treatment-emergent cardiovascular AE: Hypertension (%) [2, 7]: (11.4%)
Treatment-emergent cardiovascular AE: Hypotension (%) [2, 7]: (2.8%)
Treatment-emergent cardiovascular AE: Intermittent claudication (%) [2, 7]: (2.8%)
Treatment-emergent cardiovascular AE: Intracranial haemorrhage (%) [2, 7]: (2.8%)
Treatment-emergent cardiovascular AE: Mouth haemorrhage (%) [2, 7]: (2.8%)
Treatment-emergent cardiovascular AE: Palpitations (%) [2, 7]: (2.8%)
Treatment-emergent cardiovascular AE: Syncope (%) [2, 7]: (2.8%)
Treatment-emergent cardiovascular AE: Transient ischaemic attack (%) [2, 7]: (2.8%)
Treatment-emergent cardiovascular AE: Troponin I increased (%) [2, 7]: (2.8%)
Treatment-emergent cardiovascular AE: Ventricular Extrasystoles (%) [2, 7]: (2.8%)
Treatment-emergent cardiovascular AEs: Deaths (%) [2, 7]: (2.8%)
Treatment-emergent cardiovascular AEs: Dose interruption and restart (%) [2, 7]: (5.7%)
Treatment-emergent cardiovascular AEs: Leading to drug withdrawal (%) [2, 7]: (2.8%)
Treatment-emergent cardiovascular AEs: Related to study drug (%) [2, 7]: (5.7%)
Treatment-emergent cardiovascular AEs: Serious Adverse Events (%) [2, 7]: (11.4%)
Treatment-emergent cardiovascular AE: Adverse Events Cluster - Cardiac and vascular events (%) [2, 8]: (5.7%)
Treatment-emergent cardiovascular AE: Hypertension (%) [2, 8]: (2.8%)
Treatment-emergent cardiovascular AE: Syncope (%) [2, 8]: (2.8%)
Treatment-emergent cardiovascular AEs: Dose interruption and restart (%) [2, 8]: (2.8%)
Treatment-emergent cardiovascular AEs: Serious Adverse Events (%) [2, 8]: (2.8%)
